Source: patent publication US20160002267A1, “BENZYL-SUBSTITUTED PYRAZOLOPYRIDINES AND USE THEREOF” (BAYER PHARMA AKTIENGESELLSCHAFT, priority 2013, published 2016)

Tested on: conscious spontaneously hypertensive rats
Assay: Radiotelemetric measurement of blood pressure on conscious spontaneously hypertensive rats
Assay type: in vivo, rat
Conditions: SHR
Source text: A commercially available telemetry system from DATA SCIENCES INTERNATIONAL DSI, USA, is employed for the blood pressure measurement on conscious rats described below.
The system consists of 3 main components: • implantable transmitters (Physiotel® telemetry transmitter) • receivers (Physiotel® receiver) which are linked via a multiplexer (DSI Data Exchange Matrix) to a • data acquisition computer.
The telemetry system makes it possible to continuously record blood pressure, heart rate and body motion of conscious animals in their usual habitat.
The investigations are carried out on adult female spontaneously hypertensive rats (SHR Okamoto) with a body weight of >200 g. SHR/NCrl from the Okamoto Kyoto School of Medicine, 1963 were a cross of male Wistar Kyoto rats with highly elevated blood pressure and female rats having a slightly elevated blood pressure and at F13 handed over to the U.S. National Institutes of Health.
After transmitter implantation, the experimental animals are housed singly in type 3 Makrolon cages. They have free access to standard feed and water.
The day/night rhythm in the experimental laboratory is changed by the room lighting at 6.00 am and at 7.00 pm.
The telemetry transmitters TA11 PA-C40 used are surgically implanted under aseptic conditions in the experimental animals at least 14 days before the first experimental use. The animals instrumented in this way can be employed repeatedly after the wound has healed and the implant has settled.
Initiation of anaesthesia gas O2+N2O […] with 5% isofluran in a through-flow vessel.
After the anaesthesia has been initiated, the animal is connected to the anaesthesia mask on a thermal plate and receives 1.8% isofluran for anaesthesia maintenance and is shaved and disinfected over a large area of its abdomen. After the abdominal cavity has been opened along the linea alba, the liquid-filled measuring catheter of the system is inserted into the descending aorta in the cranial direction above the bifurcation and fixed with tissue glue (VetBonD™, 3M). The transmitter housing is fixed intraperitoneally to the abdominal wall muscle, and layered closure of the wound is performed.
An antibiotic (Oxytetracyclin® 10%, 60 mg/kg s.c., 0.06 ml/100 g body weight, Beta-Pharma GmbH & Co, Germany) and an analgesic (Rimadyl®, 4 mg/kg s.c., Pfizer, Germany) are administered postoperatively for prophylaxis of infection.
Unless indicated otherwise, the substances to be investigated are administered orally by gavage in each case to a group of animals (n=6). The test substances are dissolved in suitable solvent mixtures, or suspended in 0.5% strength Tylose, appropriate for an administration volume of 2 ml/kg of body weight.
A solvent-treated group of animals is employed as control.
The telemetry measuring unit present is configured for 24 animals. Each experiment is recorded under an experiment number (Vyear month day).
Each of the instrumented rats living in the system is assigned a separate receiving antenna (1010 Receiver, DSI).
The implanted transmitters can be activated externally by means of an incorporated magnetic switch and are switched to transmission in the run-up to the experiment. The signals emitted can be detected online by a data acquisition system (Dataquest™ A.R.T. for WINDOWS, DSI) and processed accordingly. The data are stored in each case in a file created for this purpose and bearing the experiment number.
In the standard procedure, the following are measured for 10-second periods in each case: • systolic blood pressure (SBP) • diastolic blood pressure (DBP) • mean arterial pressure (MAP) • heart rate (HR) • activity (ACT).
The acquisition of measurements is repeated under computer control at 5-minute intervals. The source data obtained as absolute value are corrected in the diagram with the currently measured barometric pressure (Ambient Pressure Reference Monitor; APR-1) and stored as individual data. […]

In the case of CC1(C(F)(F)F)C(=O)Nc2nc(-c3nn(Cc4ccccc4F)c4ncc(F)cc34)nc(NCCC(F)(F)F)c21 (single isomer, unassigned) [Example 1-1, 2-[5-Fluoro-1-(2-fluorobenzyl)-1H-pyrazolo[3,4-b]pyridin-3-yl]-5-methyl-5-(trifluoromethyl)-4-[(3,3,3-trifluoropropyl)amino]-5,7-dihydro-6H-pyrrolo[2,3-d]pyrimidin-6-one], the Mean blood pressure (0.03 mg/kg, 0 hours after administration of substance) is reported as 140.3 mmHg, the Mean blood pressure (0.03 mg/kg, 1 hours after administration of substance) is reported as 124.4 mmHg and the Mean blood pressure (0.03 mg/kg, 2 hours after administration of substance) is reported as 125.2 mmHg. It also gave a Mean blood pressure (0.03 mg/kg, 3 hours after administration of substance) of 120.6 mmHg, a Mean blood pressure (0.03 mg/kg, 4 hours after administration of substance) of 124.2 mmHg and a Mean blood pressure (0.03 mg/kg, 5 hours after administration of substance) of 119.2 mmHg. The Mean blood pressure (0.03 mg/kg, 6 hours after administration of substance) was 122.4 mmHg, the Mean blood pressure (0.03 mg/kg, 7 hours after administration of substance) was 124.8 mmHg and the Mean blood pressure (0.03 mg/kg, 8 hours after administration of substance) was 129.0 mmHg. For the same compound, the Mean blood pressure (0.03 mg/kg, 9 hours after administration of substance) was 132.2 mmHg, the Mean blood pressure (0.03 mg/kg, 10 hours after administration of substance) was 126.0 mmHg and the Mean blood pressure (0.03 mg/kg, 11 hours after administration of substance) was 119.8 mmHg. It also gave a Mean blood pressure (0.03 mg/kg, 12 hours after administration of substance) of 134.4 mmHg, a Mean blood pressure (0.03 mg/kg, 13 hours after administration of substance) of 130.0 mmHg and a Mean blood pressure (0.03 mg/kg, 14 hours after administration of substance) of 131.4 mmHg. It also gave a Mean blood pressure (0.03 mg/kg, 15 hours after administration of substance) of 133.6 mmHg, a Mean blood pressure (0.03 mg/kg, 16 hours after administration of substance) of 120.6 mmHg and a Mean blood pressure (0.03 mg/kg, 17 hours after administration of substance) of 135.4 mmHg. For the same compound, the Mean blood pressure (0.03 mg/kg, 18 hours after administration of substance) was 131.6 mmHg, the Mean blood pressure (0.03 mg/kg, 19 hours after administration of substance) was 123.2 mmHg and the Mean blood pressure (0.03 mg/kg, 20 hours after administration of substance) was 123.4 mmHg. For the same compound, the Mean blood pressure (0.03 mg/kg, 21 hours after administration of substance) was 125.4 mmHg, the Mean blood pressure (0.03 mg/kg, 22 hours after administration of substance) was 134.2 mmHg and the Mean blood pressure (0.03 mg/kg, 23 hours after administration of substance) was 132.0 mmHg. For the same compound, the Mean blood pressure (0.03 mg/kg, 24 hours after administration of substance) was 126.8 mmHg, the Mean blood pressure (0.3 mg/kg p.o., 0 hours after administration of substance) was 144.2 mmHg and the Mean blood pressure (0.3 mg/kg p.o., 1 hours after administration of substance) was 128.5 mmHg. It also gave a Mean blood pressure (0.3 mg/kg p.o., 2 hours after administration of substance) of 116.7 mmHg, a Mean blood pressure (0.3 mg/kg p.o., 3 hours after administration of substance) of 112.8 mmHg and a Mean blood pressure (0.3 mg/kg p.o., 4 hours after administration of substance) of 114.3 mmHg. It also gave a Mean blood pressure (0.3 mg/kg p.o., 5 hours after administration of substance) of 109.3 mmHg, a Mean blood pressure (0.3 mg/kg p.o., 6 hours after administration of substance) of 110.2 mmHg and a Mean blood pressure (0.3 mg/kg p.o., 7 hours after administration of substance) of 113.5 mmHg. For the same compound, the Mean blood pressure (0.3 mg/kg p.o., 8 hours after administration of substance) was 114.2 mmHg, the Mean blood pressure (0.3 mg/kg p.o., 9 hours after administration of substance) was 114.5 mmHg and the Mean blood pressure (0.3 mg/kg p.o., 10 hours after administration of substance) was 109.5 mmHg. The Mean blood pressure (0.3 mg/kg p.o., 11 hours after administration of substance) was 118.2 mmHg, the Mean blood pressure (0.3 mg/kg p.o., 12 hours after administration of substance) was 110.5 mmHg and the Mean blood pressure (0.3 mg/kg p.o., 13 hours after administration of substance) was 115.5 mmHg. For the same compound, the Mean blood pressure (0.3 mg/kg p.o., 14 hours after administration of substance) was 117.8 mmHg, the Mean blood pressure (0.3 mg/kg p.o., 15 hours after administration of substance) was 114.5 mmHg and the Mean blood pressure (0.3 mg/kg p.o., 16 hours after administration of substance) was 118.2 mmHg. For the same compound, the Mean blood pressure (0.3 mg/kg p.o., 17 hours after administration of substance) was 122.7 mmHg, the Mean blood pressure (0.3 mg/kg p.o., 18 hours after administration of substance) was 127.8 mmHg and the Mean blood pressure (0.3 mg/kg p.o., 19 hours after administration of substance) was 121.0 mmHg. For the same compound, the Mean blood pressure (0.3 mg/kg p.o., 20 hours after administration of substance) was 110.5 mmHg, the Mean blood pressure (0.3 mg/kg p.o., 21 hours after administration of substance) was 113.3 mmHg and the Mean blood pressure (0.3 mg/kg p.o., 22 hours after administration of substance) was 116.7 mmHg. For the same compound, the Mean blood pressure (0.3 mg/kg p.o., 23 hours after administration of substance) was 115.7 mmHg and the Mean blood pressure (0.3 mg/kg p.o., 24 hours after administration of substance) was 123.7 mmHg.
